Test results from ChEMBL document CHEMBL1177708, “Design, synthesis, and biological evaluation of a novel class of gamma-secretase modulators with PPARgamma activity” (J Med Chem, 2010).
pEC50, pIC50: −log10 of the molar value. The source made the active and inactive calls. No cut-off for these calls is given here.

Key:
CHO [1] = assay: Cytotoxicity against CHO cells at 60 uM after 24 hrs by Alamar blue assay; type: cell-based, Cricetulus griseus; conditions: chinese hamster
[2] = target: T1, Prostaglandin G/H synthase 2 (Homo sapiens) (UniProt P35354); assay: Inhibition of human recombinant COX2 assessed as residual activity at 10 uM after 5 mins
T1 sequence (whole entry): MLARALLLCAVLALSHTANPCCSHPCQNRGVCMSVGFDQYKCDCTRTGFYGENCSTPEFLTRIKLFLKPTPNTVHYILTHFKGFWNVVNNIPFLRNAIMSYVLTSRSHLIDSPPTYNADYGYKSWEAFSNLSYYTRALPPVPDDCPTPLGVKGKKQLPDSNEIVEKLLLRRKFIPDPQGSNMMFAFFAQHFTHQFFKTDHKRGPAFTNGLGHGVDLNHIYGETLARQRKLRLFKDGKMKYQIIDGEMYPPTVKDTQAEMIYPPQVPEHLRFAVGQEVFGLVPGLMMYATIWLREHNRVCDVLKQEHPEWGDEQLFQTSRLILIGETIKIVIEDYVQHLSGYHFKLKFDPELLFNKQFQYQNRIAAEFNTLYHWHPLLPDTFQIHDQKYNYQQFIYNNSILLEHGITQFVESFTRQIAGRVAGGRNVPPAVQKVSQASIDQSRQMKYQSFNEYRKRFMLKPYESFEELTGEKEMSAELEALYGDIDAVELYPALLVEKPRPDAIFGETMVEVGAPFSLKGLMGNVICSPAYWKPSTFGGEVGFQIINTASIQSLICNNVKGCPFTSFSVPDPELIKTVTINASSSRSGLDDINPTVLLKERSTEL

[3] = target: T2, Peroxisome proliferator-activated receptor alpha (Homo sapiens) (UniProt Q07869); assay: Agonist activity at human PPARalpha-LBD expressed in COS7 cells co-transfected with Gal4 at 10 uM by luciferase based transactivation assay; type: functional, cell-based; conditions: COS-7
T2 sequence (whole entry): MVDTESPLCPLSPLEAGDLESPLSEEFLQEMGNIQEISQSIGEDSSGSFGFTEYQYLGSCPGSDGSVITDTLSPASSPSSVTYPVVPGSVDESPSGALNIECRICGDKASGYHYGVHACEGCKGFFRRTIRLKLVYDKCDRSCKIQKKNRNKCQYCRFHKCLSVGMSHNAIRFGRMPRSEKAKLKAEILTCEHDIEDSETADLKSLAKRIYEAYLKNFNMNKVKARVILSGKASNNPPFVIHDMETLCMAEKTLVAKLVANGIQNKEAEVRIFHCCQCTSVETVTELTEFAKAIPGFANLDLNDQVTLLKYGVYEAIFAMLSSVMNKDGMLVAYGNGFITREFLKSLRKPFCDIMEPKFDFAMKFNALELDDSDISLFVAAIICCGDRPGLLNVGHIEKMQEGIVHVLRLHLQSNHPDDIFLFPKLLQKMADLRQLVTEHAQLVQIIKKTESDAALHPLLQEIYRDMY

[4] = target: T3, Peroxisome proliferator-activated receptor gamma (Homo sapiens) (UniProt P37231); assay: Agonist activity at human PPARgamma-LBD expressed in COS7 cells co-transfected with Gal4 at 20 uM by luciferase based transactivation assay; type: functional, cell-based; conditions: COS-7
T3 sequence (whole entry): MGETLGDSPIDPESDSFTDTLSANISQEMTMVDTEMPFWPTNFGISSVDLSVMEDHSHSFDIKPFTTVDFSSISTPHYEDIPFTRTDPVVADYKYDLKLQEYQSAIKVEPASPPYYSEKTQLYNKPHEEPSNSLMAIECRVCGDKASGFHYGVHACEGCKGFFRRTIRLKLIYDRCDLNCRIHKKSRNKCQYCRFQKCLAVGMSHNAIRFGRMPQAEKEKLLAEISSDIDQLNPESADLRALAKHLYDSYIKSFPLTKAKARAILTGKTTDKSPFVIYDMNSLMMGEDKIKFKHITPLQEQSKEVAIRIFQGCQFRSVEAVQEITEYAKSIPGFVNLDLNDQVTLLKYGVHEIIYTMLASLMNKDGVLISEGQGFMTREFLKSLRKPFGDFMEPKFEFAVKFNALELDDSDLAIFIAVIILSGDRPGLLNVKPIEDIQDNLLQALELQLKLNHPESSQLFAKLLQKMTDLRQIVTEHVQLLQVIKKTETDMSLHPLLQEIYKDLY

[5] = target: T4, Peroxisome proliferator-activated receptor delta (Homo sapiens) (UniProt Q03181); assay: Agonist activity at human PPARdelta-LBD expressed in COS7 cells co-transfected with Gal4 at 10 uM by luciferase based transactivation assay; type: functional, cell-based; conditions: COS-7
T4 sequence (whole entry): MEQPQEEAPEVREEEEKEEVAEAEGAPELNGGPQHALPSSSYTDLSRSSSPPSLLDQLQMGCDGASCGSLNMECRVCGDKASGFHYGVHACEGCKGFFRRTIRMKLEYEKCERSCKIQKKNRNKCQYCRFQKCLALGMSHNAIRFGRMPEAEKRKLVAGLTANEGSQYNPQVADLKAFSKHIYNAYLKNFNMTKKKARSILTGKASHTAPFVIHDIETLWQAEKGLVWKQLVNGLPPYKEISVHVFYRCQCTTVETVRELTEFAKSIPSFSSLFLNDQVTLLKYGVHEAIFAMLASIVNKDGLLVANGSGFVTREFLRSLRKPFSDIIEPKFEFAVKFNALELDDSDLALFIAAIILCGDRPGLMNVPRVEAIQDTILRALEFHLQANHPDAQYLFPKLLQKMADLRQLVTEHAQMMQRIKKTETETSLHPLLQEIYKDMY

[6] = Modulation of gamma-secretase-mediated cleavage of human APP expressed in CHO cells with human presenilin-1 assessed as activation of amyloid beta38 production after 24 hrs by ELISA; type: cell-based
[7] = target: T5, Prostaglandin G/H synthase 1 (Ovis aries) (UniProt P05979); assay: Inhibition of ovine COX1 assessed as residual activity at 10 uM after 5 mins
T5 sequence (whole entry): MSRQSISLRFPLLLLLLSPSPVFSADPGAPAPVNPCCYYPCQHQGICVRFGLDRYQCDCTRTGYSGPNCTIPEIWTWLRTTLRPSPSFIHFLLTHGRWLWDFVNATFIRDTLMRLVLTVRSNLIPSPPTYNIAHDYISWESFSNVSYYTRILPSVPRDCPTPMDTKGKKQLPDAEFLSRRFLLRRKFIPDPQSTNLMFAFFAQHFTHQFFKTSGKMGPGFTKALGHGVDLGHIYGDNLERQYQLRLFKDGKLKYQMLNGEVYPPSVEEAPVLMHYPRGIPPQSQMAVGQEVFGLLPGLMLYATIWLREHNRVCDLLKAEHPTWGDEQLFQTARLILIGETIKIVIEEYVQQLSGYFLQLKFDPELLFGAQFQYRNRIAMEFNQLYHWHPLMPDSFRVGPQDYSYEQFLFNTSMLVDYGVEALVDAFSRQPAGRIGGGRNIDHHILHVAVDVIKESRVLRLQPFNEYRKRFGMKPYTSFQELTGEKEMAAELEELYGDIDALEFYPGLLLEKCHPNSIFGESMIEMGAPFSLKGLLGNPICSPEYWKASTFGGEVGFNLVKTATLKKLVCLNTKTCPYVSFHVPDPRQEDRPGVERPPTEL

cells = conditions: CHO, 24 h
Description: Modulation of gamma-secretase-mediated cleavage of human APP expressed in CHO cells with human presenilin-1 assessed as inhibition of amyloid beta42 production after 24 hrs by ELISA

CHO [8] = assay: Modulation of gamma-secretase-mediated notch signaling expressed in CHO cells transfected with Gal4-DNA-binding/VP16 transactivation domain assessed as reduction of reporter activity at 0.5 uM after 24 hrs; type: cell-based
[9] = target: T3, Peroxisome proliferator-activated receptor gamma (Homo sapiens); assay: Agonist activity at human PPARgamma-LBD expressed in COS7 cells co-transfected with Gal4 at 10 uM by luciferase based transactivation assay; type: functional, cell-based; conditions: COS-7
[10] = target: T3, Peroxisome proliferator-activated receptor gamma (Homo sapiens); assay: Agonist activity at human PPARgamma-LBD expressed in COS7 cells co-transfected with Gal4 at 10 uM by luciferase based transactivation assay; conditions: COS-7
[11] = target: T3, Peroxisome proliferator-activated receptor gamma (Homo sapiens); assay: Agonist activity at human PPARgamma-LBD expressed in COS7 cells co-transfected with Gal4 at 6 uM by luciferase based transactivation assay; type: functional, cell-based; conditions: COS-7
[12] = target: T3, Peroxisome proliferator-activated receptor gamma (Homo sapiens); assay: Agonist activity at human PPARgamma-LBD expressed in COS7 cells co-transfected with Gal4 by luciferase based transactivation assay relative to pioglitazone; type: functional, cell-based; conditions: COS-7
[13] = target: T6, Prostaglandin G/H synthase 1 (Ovis aries, UniProt P05979)
T6 sequence (P05979 whole entry): T5 sequence (whole entry)
Description: Inhibition of ovine COX1 after 5 mins

CHO [14] = assay: Modulation of gamma-secretase-mediated notch signaling expressed in CHO cells transfected with Gal4-DNA-binding/VP16 transactivation domain assessed as reduction of reporter activity at 5 to 40 uM after 24 hrs; type: cell-based
CHO [15] = assay: Cytotoxicity against CHO cells at 40 uM after 24 hrs by Alamar blue assay; type: cell-based, Cricetulus griseus; conditions: chinese hamster
[16] = target: T7, Peroxisome proliferator-activated receptor gamma (Homo sapiens, UniProt P37231); assay: Agonist activity at human PPARgamma-LBD expressed in COS7 cells co-transfected with Gal4 by luciferase based transactivation assay; type: functional, cell-based, COS-7
T7 sequence (P37231 whole entry): T3 sequence (whole entry)

[17] = target: T6, Prostaglandin G/H synthase 1; remark: listed apart in the source
Description: Inhibition of ovine COX1 after 5 mins

SMILES	Activity [2]	Activity [3]	Activity [4]	Activity [5]	pEC50 [6]	Activity [7]	pIC50 (cells)	Activity [9]	Activity [10]	Activity [11]	Emax [12]	pIC50 [13]	pEC50 [16]	Activity (CHO [1])	Activity (CHO [8])	Activity (CHO [14])	Activity (CHO [15])	IC50 [17]
CC(C)C[C@H](NC(=O)[C@H](Cc1ccccc1)C[C@@H](O)[C@H](Cc1ccccc1)NC(=O)OC(C)(C)C)C(=O)N[C@@H](Cc1ccccc1)C(N)=O	–	–	–	–	–	–	–	–	–	–	–	–	–	–	Active	–	–	–
O=C(O)C(Sc1nc(OCCc2ccccc2)cc(OCCc2ccccc2)n1)c1ccccc1 (stereo not given)	86%	inactive	–	inactive	4.89	72.2%	4.53	–	inactive	–	–	–	–	Non-toxic	–	–	–	–
CCCCC(Sc1nc(OCCc2ccc([N+](=O)[O-])cc2)cc(OCCc2ccc([N+](=O)[O-])cc2)n1)C(=O)O (stereo not given)	91.6%	inactive	–	inactive	–	82.1%	4.51	–	–	33%	–	–	–	Non-toxic	–	–	–	–
CCCCC(Sc1nc(OCCc2ccsc2)cc(OCCc2ccsc2)n1)C(=O)O (stereo not given)	102%	inactive	32%	inactive	4.76	76.6%	4.42	–	–	–	–	–	–	Non-toxic	–	–	–	–
C[C@@H](C(=O)O)c1ccc(-c2ccccc2)c(F)c1 [TARENFLURBIL]	–	–	–	–	–	–	3.52	–	–	–	–	–	–	–	–	–	–	Not Active

Now from value to compound, other results behind:

Activity [2]	Activity [3]	Activity [4]	Activity [5]	pEC50 [6]	Activity [7]	pIC50 (cells)	Activity [9]	Activity [10]	Activity [11]	Emax [12]	pIC50 [13]	pEC50 [16]	SMILES	Activity (CHO [1])	Activity (CHO [8])	Activity (CHO [14])	Activity (CHO [15])	IC50 [17]
61.6%	inactive	31%	inactive	4.62	88.9%	4.60	–	–	–	–	–	–	CCCCC(Sc1nc(OCc2ccccc2)cc(OCc2ccccc2)n1)C(=O)O (stereo not given)	Non-toxic	–	–	–	–
98.5%	inactive	–	inactive	5.08	73.9%	4.67	22%	–	–	–	–	–	CCCC[C@@H](Sc1nc(OCCc2ccccc2)cc(OCCc2ccccc2)n1)C(=O)O	Non-toxic	–	–	–	–
69%	inactive	–	inactive	5.74	54.4%	5.22	–	–	–	112%	4.77	4.96	CCCCC(Sc1nc(OCCc2ccc(C(F)(F)F)cc2)cc(OCCc2ccc(C(F)(F)F)cc2)n1)C(=O)O (stereo not given)	25%	–	inactive	Non-toxic	–
50.1%	inactive	–	inactive	5.72	56.1%	4.95	–	inactive	–	–	–	–	CCCCC(Sc1nc(OCCC2CCCCCC2)cc(OCCC2CCCCCC2)n1)C(=O)O (stereo not given)	Non-toxic	–	–	–	–
94.6%	inactive	–	inactive	5.21	72.8%	4.71	23%	–	–	–	–	–	CCCCC(Sc1nc(OCCc2ccc(OC)cc2)cc(OCCc2ccc(OC)cc2)n1)C(=O)O (stereo not given)	Non-toxic	–	–	–	–
